# Source: the NIST ThermoML archive (doi:10.1016/j.fluid.2016.02.035)
# Numbers after ± are expanded uncertainties.
# Experiment: mn = molality of the nth substance listed, in mol/kg
# Settings: 101 kPa, Liquid; for speed of sound: Sing-around technique in a fixed-path interferometer; for mass density: Vibrating tube method
structure (smiles),measurement,setting,value
CCCC[N+](CCCC)(CCCC)CCCC.[Br-] [tetrabutylammonium bromide] + O,speed of sound,"308.15 K, m1 = 0.0015",1520.2 ± 1.2 m/s
same,speed of sound,"308.15 K, m1 = 0.0047",1520.9 ± 1.2 m/s
same,speed of sound,"308.15 K, m1 = 0.0061",1521.2 ± 1.2 m/s
same,speed of sound,"308.15 K, m1 = 0.013",1522.5 ± 1.2 m/s
same,speed of sound,"308.15 K, m1 = 0.0183",1523.7 ± 1.2 m/s
same,speed of sound,"308.15 K, m1 = 0.026",1525.1 ± 1.2 m/s
same,speed of sound,"308.15 K, m1 = 0.031",1526.1 ± 1.2 m/s
same,speed of sound,"308.15 K, m1 = 0.0492",1529.5 ± 1.2 m/s
same,speed of sound,"308.15 K, m1 = 0.0796",1535.4 ± 1.2 m/s
same,speed of sound,"308.15 K, m1 = 0.0997",1539.2 ± 1.2 m/s
same,speed of sound,"308.15 K, m1 = 0.1118",1541.5 ± 1.2 m/s
same,speed of sound,"308.15 K, m1 = 0.1291",1544.7 ± 1.2 m/s
same,speed of sound,"308.15 K, m1 = 0.1464",1547.8 ± 1.2 m/s
same,speed of sound,"308.15 K, m1 = 0.1626",1550.7 ± 1.2 m/s
same,speed of sound,"308.15 K, m1 = 0.1952",1556.3 ± 1.2 m/s
same,speed of sound,"308.15 K, m1 = 0.2309",1562.5 ± 1.2 m/s
same,speed of sound,"308.15 K, m1 = 0.2732",1569.5 ± 1.2 m/s
same,speed of sound,"308.15 K, m1 = 0.3073",1574.9 ± 1.2 m/s
same,speed of sound,"308.15 K, m1 = 0.3449",1580.8 ± 1.2 m/s
same,speed of sound,"308.15 K, m1 = 0.5437",1608.6 ± 1.3 m/s
same,speed of sound,"308.15 K, m1 = 0.7712",1634.4 ± 1.3 m/s
same,mass density,"308.15 K, m1 = 0.0015",994.069 ± 0.11 kg/m3
same,mass density,"308.15 K, m1 = 0.0047",994.133 ± 0.11 kg/m3
same,mass density,"308.15 K, m1 = 0.0061",994.141 ± 0.11 kg/m3
same,mass density,"308.15 K, m1 = 0.013",994.299 ± 0.11 kg/m3
same,mass density,"308.15 K, m1 = 0.0183",994.411 ± 0.11 kg/m3
same,mass density,"308.15 K, m1 = 0.026",994.559 ± 0.11 kg/m3
same,mass density,"308.15 K, m1 = 0.031",994.67 ± 0.11 kg/m3
same,mass density,"308.15 K, m1 = 0.0492",995.05 ± 0.11 kg/m3
same,mass density,"308.15 K, m1 = 0.0796",995.683 ± 0.11 kg/m3
same,mass density,"308.15 K, m1 = 0.0997",996.092 ± 0.11 kg/m3
same,mass density,"308.15 K, m1 = 0.1118",996.35 ± 0.11 kg/m3
same,mass density,"308.15 K, m1 = 0.1291",996.709 ± 0.11 kg/m3
same,mass density,"308.15 K, m1 = 0.1464",997.075 ± 0.11 kg/m3
same,mass density,"308.15 K, m1 = 0.1626",997.408 ± 0.11 kg/m3
same,mass density,"308.15 K, m1 = 0.1952",998.092 ± 0.11 kg/m3
same,mass density,"308.15 K, m1 = 0.2309",998.837 ± 0.12 kg/m3
same,mass density,"308.15 K, m1 = 0.2732",999.711 ± 0.12 kg/m3
same,mass density,"308.15 K, m1 = 0.3073",1000.41 ± 0.12 kg/m3
same,mass density,"308.15 K, m1 = 0.3449",1001.16 ± 0.12 kg/m3
same,mass density,"308.15 K, m1 = 0.5437",1005.11 ± 0.14 kg/m3
same,mass density,"308.15 K, m1 = 0.7712",1009.28 ± 0.18 kg/m3
same,speed of sound,"313.15 K, m1 = 0.0015",1529.2 ± 1.2 m/s
same,speed of sound,"313.15 K, m1 = 0.0047",1529.9 ± 1.2 m/s
same,speed of sound,"313.15 K, m1 = 0.0061",1530.2 ± 1.2 m/s
same,speed of sound,"313.15 K, m1 = 0.013",1531.4 ± 1.2 m/s
same,speed of sound,"313.15 K, m1 = 0.0183",1532.4 ± 1.2 m/s
same,speed of sound,"313.15 K, m1 = 0.026",1533.8 ± 1.2 m/s
same,speed of sound,"313.15 K, m1 = 0.031",1534.7 ± 1.2 m/s
same,speed of sound,"313.15 K, m1 = 0.0492",1537.8 ± 1.2 m/s
same,speed of sound,"313.15 K, m1 = 0.0796",1543.2 ± 1.2 m/s
same,speed of sound,"313.15 K, m1 = 0.0997",1546.6 ± 1.2 m/s
same,speed of sound,"313.15 K, m1 = 0.1118",1548.8 ± 1.2 m/s
same,speed of sound,"313.15 K, m1 = 0.1291",1551.7 ± 1.2 m/s
same,speed of sound,"313.15 K, m1 = 0.1464",1554.6 ± 1.2 m/s
same,speed of sound,"313.15 K, m1 = 0.1626",1557.2 ± 1.2 m/s
same,speed of sound,"313.15 K, m1 = 0.1952",1562.3 ± 1.2 m/s
same,speed of sound,"313.15 K, m1 = 0.2309",1567.9 ± 1.2 m/s
same,speed of sound,"313.15 K, m1 = 0.2732",1574.3 ± 1.2 m/s
same,speed of sound,"313.15 K, m1 = 0.3073",1579.2 ± 1.2 m/s
same,speed of sound,"313.15 K, m1 = 0.3449",1584.5 ± 1.2 m/s
same,speed of sound,"313.15 K, m1 = 0.5437",1609.5 ± 1.3 m/s
same,speed of sound,"313.15 K, m1 = 0.7712",1632 ± 1.3 m/s
same,mass density,"313.15 K, m1 = 0.0015",992.252 ± 0.11 kg/m3
same,mass density,"313.15 K, m1 = 0.0047",992.309 ± 0.11 kg/m3
same,mass density,"313.15 K, m1 = 0.0061",992.322 ± 0.11 kg/m3
same,mass density,"313.15 K, m1 = 0.013",992.471 ± 0.11 kg/m3
same,mass density,"313.15 K, m1 = 0.0183",992.571 ± 0.11 kg/m3
same,mass density,"313.15 K, m1 = 0.026",992.724 ± 0.11 kg/m3
same,mass density,"313.15 K, m1 = 0.031",992.829 ± 0.11 kg/m3
same,mass density,"313.15 K, m1 = 0.0492",993.186 ± 0.11 kg/m3
same,mass density,"313.15 K, m1 = 0.0796",993.797 ± 0.11 kg/m3
same,mass density,"313.15 K, m1 = 0.0997",994.191 ± 0.11 kg/m3
same,mass density,"313.15 K, m1 = 0.1118",994.435 ± 0.11 kg/m3
same,mass density,"313.15 K, m1 = 0.1291",994.777 ± 0.11 kg/m3
same,mass density,"313.15 K, m1 = 0.1464",995.128 ± 0.11 kg/m3
same,mass density,"313.15 K, m1 = 0.1626",995.446 ± 0.11 kg/m3
same,mass density,"313.15 K, m1 = 0.1952",996.099 ± 0.11 kg/m3
same,mass density,"313.15 K, m1 = 0.2309",996.807 ± 0.12 kg/m3
same,mass density,"313.15 K, m1 = 0.2732",997.64 ± 0.12 kg/m3
same,mass density,"313.15 K, m1 = 0.3073",998.309 ± 0.12 kg/m3
same,mass density,"313.15 K, m1 = 0.3449",999.017 ± 0.12 kg/m3
same,mass density,"313.15 K, m1 = 0.5437",1002.75 ± 0.14 kg/m3
same,mass density,"313.15 K, m1 = 0.7712",1006.68 ± 0.18 kg/m3
same,speed of sound,"318.15 K, m1 = 0.0015",1536.8 ± 1.2 m/s
same,speed of sound,"318.15 K, m1 = 0.0047",1537.4 ± 1.2 m/s
same,speed of sound,"318.15 K, m1 = 0.0061",1537.6 ± 1.2 m/s
same,speed of sound,"318.15 K, m1 = 0.013",1538.7 ± 1.2 m/s
same,speed of sound,"318.15 K, m1 = 0.0183",1539.7 ± 1.2 m/s
same,speed of sound,"318.15 K, m1 = 0.026",1540.9 ± 1.2 m/s
same,speed of sound,"318.15 K, m1 = 0.031",1541.8 ± 1.2 m/s
same,speed of sound,"318.15 K, m1 = 0.0492",1544.6 ± 1.2 m/s
same,speed of sound,"318.15 K, m1 = 0.0796",1549.6 ± 1.2 m/s
same,speed of sound,"318.15 K, m1 = 0.0997",1552.7 ± 1.2 m/s
same,speed of sound,"318.15 K, m1 = 0.1118",1554.6 ± 1.2 m/s
same,speed of sound,"318.15 K, m1 = 0.1291",1557.3 ± 1.2 m/s
same,speed of sound,"318.15 K, m1 = 0.1464",1559.9 ± 1.2 m/s
same,speed of sound,"318.15 K, m1 = 0.1626",1562.3 ± 1.2 m/s
same,speed of sound,"318.15 K, m1 = 0.1952",1567 ± 1.2 m/s
same,speed of sound,"318.15 K, m1 = 0.2309",1572 ± 1.2 m/s
same,speed of sound,"318.15 K, m1 = 0.2732",1577.8 ± 1.2 m/s
same,speed of sound,"318.15 K, m1 = 0.3073",1582.3 ± 1.2 m/s
same,speed of sound,"318.15 K, m1 = 0.3449",1587.1 ± 1.2 m/s
same,speed of sound,"318.15 K, m1 = 0.5437",1609.2 ± 1.3 m/s
same,speed of sound,"318.15 K, m1 = 0.7712",1629 ± 1.3 m/s
same,mass density,"318.15 K, m1 = 0.0015",990.25 ± 0.11 kg/m3
same,mass density,"318.15 K, m1 = 0.0047",990.268 ± 0.11 kg/m3
same,mass density,"318.15 K, m1 = 0.0061",990.285 ± 0.11 kg/m3
same,mass density,"318.15 K, m1 = 0.013",990.457 ± 0.11 kg/m3
same,mass density,"318.15 K, m1 = 0.0183",990.535 ± 0.11 kg/m3
same,mass density,"318.15 K, m1 = 0.026",990.703 ± 0.11 kg/m3
same,mass density,"318.15 K, m1 = 0.031",990.802 ± 0.11 kg/m3
same,mass density,"318.15 K, m1 = 0.0492",991.142 ± 0.11 kg/m3
same,mass density,"318.15 K, m1 = 0.0796",991.727 ± 0.11 kg/m3
same,mass density,"318.15 K, m1 = 0.0997",992.105 ± 0.11 kg/m3
same,mass density,"318.15 K, m1 = 0.1118",992.338 ± 0.11 kg/m3
same,mass density,"318.15 K, m1 = 0.1291",992.665 ± 0.11 kg/m3
same,mass density,"318.15 K, m1 = 0.1464",992.999 ± 0.11 kg/m3
same,mass density,"318.15 K, m1 = 0.1626",993.303 ± 0.11 kg/m3
same,mass density,"318.15 K, m1 = 0.1952",993.923 ± 0.11 kg/m3
same,mass density,"318.15 K, m1 = 0.2309",994.602 ± 0.12 kg/m3
same,mass density,"318.15 K, m1 = 0.2732",995.396 ± 0.12 kg/m3
same,mass density,"318.15 K, m1 = 0.3073",996.027 ± 0.12 kg/m3
same,mass density,"318.15 K, m1 = 0.3449",996.7 ± 0.12 kg/m3
same,mass density,"318.15 K, m1 = 0.5437",1000.24 ± 0.14 kg/m3
same,mass density,"318.15 K, m1 = 0.7712",1003.95 ± 0.18 kg/m3
